We go through 13 compounds from patent US8383816B2, “Aryl-quinolyl compounds and their use” (Cancer Research Technology Limited, priority 2008, dated 2013).

Test [1] concerns pERK. Nature of the test: Cell Based Phospho-ERK Assay. As to conditions: 6 h, cells incubated with test compound for 6 hours. As to the method: Biological Methods—Cell Based Phosho-ERK Assay
Compounds were assessed using a cell-based assay which was performed according to the following protocol.
Plate out 16,000 cells/well in 99 μL medium in a 96-well plate.
1. Add 1 μL inhibitor to the cells […].
2. Incubate the cells with test compound for 6 hours at 37° C.
3. Aspirate off the solution from all of the wells.
4. Fixate the cells with 100 μL 4% formaldehyde/0.25% Triton X-100 PBS per well.
5. Incubate the plate for 1 hour at 4° C.
6. Aspirate off the fixing solution and add 300 μL TBS per well.
7. Leave the plate overnight at 4° C.
1. Wash the plate 2× with 200 μL PBS per well.
2. Block with 100 μL 5% dried milk in TBS.
3. Incubate the plate for 20 minutes at 37° C.
4. Wash the plate 2× with 0.1% tween/H2O.
5. Add 50 μL of 3 μg/mL primary antibody pERK (Sigma M8159), diluted in 5% milk powder/TBS, to each well.
6. Incubate the plate for 2 hours at 37° C.
7. Wash the plate 3× with 0.1% tween/H2O.
8. Add 50 μL of 0.45 μg/mL secondary Europium-labelled anti-mouse antibody (Perkin Elmer) to each well.
9. Incubate the plate for 1 hour at 37° C.
10. Wash the plate 3× with 0.1% tween/H2O.
11. Add 100 μL enhancement solution (Perkin Elmer) to each well.
12. Leave the plate for approximately 10 minutes at room temperature before gently shaking the plate.
13. Read Europium Time Resolved Fluorescence in Victor2.
14. Wash the plate 2× with 0.1% tween/H2O.
15. Measure the protein concentration with BCA (Sigma) by adding 200 μL of solution per well.
16. Incubate the plate for 30 minutes at 37° C.
17. Read absorbance levels at 570 nm in a plate reader.
Note that Europium counts are normalised for protein levels by dividing counts by absorbance.
(§1) Values for the blank (no cells) are subtracted from all values. The DMSO controls are set as 100% activity and assay points (the response) are calculated as a percentage of the DMSO control. Data are plotted using Graphpad Prism software and a non-linear regression line is calculated using a variable slope sigmoidal dose-response equation (Y=Bottom+(Top−Bottom)/(1+10^((LogEC50−X)*HillSlope)) where X is the logarithm of concentration. Y is the response). The IC50 generated by this procedure is the concentration of the drug that produces a percentage control fluorescence value midway between the saturation, and zero-effect plateaus. Three independent assays are usually performed and the mean IC50 is reported.

The test system of test [2] is WM266.4 melanoma cells. Nature of the test: SRB Cell Proliferation Assay (SRB GI50). Type of test: cell-based. Particulars: Homo sapiens, WM 266-4, 144 h, 6 days growth. As to the method:
Biological Methods—SRB Cell Proliferation Assay (SRB GI50)
Cultures of WM266.4 melanoma cells are routinely cultured in DMEM/10% foetal bovine serum, at 37° C., in 5% CO2 water saturated atmosphere. Cultures are maintained in exponential growth phase by sub-culturing before having become confluent (3-5 day intervals). Single cell suspensions are prepared by harvesting an 80 cm^2 tissue culture flask with 5 mL commercial trypsin EDTA. After 5 minutes, the detached cells are mixed with 5 mL fully complemented culture medium and centrifugally pelleted (1000 rpm for 7 minutes). After aspirating the supernatant, the cell pellet is re-suspended in 10 mL fresh medium and the cells fully disaggregated by drawing the whole volume up/down 5 times through a 19-gauge needle. The concentration of the cells is determined using a haemocytometer (1/10 dilution). A suitable volume to give at least a 2-fold excess for the number of tests being conducted, typically 100-200 mL, is prepared by diluting the cell suspension to 10,000/mL, and 100 μL/well dispensed into 96 well plates using a programmable 8-channel peristaltic pump, giving 1000 cells/well, leaving column 12 blank. The plates are returned to the incubator for 24 hours to allow the cells to re-attach.
The compounds being tested are prepared at 20 mM in dimethylsulphoxide. Aliquots (200 μL) are diluted into 20 mL culture medium giving 200 μM, and 10 serial dilutions of 3× performed by transferring 5 mL to 10 mL. Aliquots (100 μL) of each dilution are added to the wells, using an 8-channel pipettor, thus performing a final further 2× dilution, and giving doses ranging from 100 μM to 0.005 μM. Column 11 receives plain culture medium only. Each compound is tested in quadruplicate, each replicate being the average of four wells, and two plates per compound.
After a further 6 days growth, the plates are emptied, and the cells are fixed in 10% trichloroacteic acid for 10 minutes on ice. After thorough rinsing in running tap water, the plates are dried, and stained by adding 50 μL of a solution of 0.1% sulphorhodamine-B in 1% acetic acid, for 10 minutes at room temperature. The stain is poured out and the plates thoroughly rinsed under a stream of 1% acetic acid, thus removing unbound stain, and dried. The bound stain is taken into solution by addition of 150 μL Tris buffer pH 8, followed by 10 minutes on a plate-shaker (approximately 500 rpm). The absorbance at 540 nm in each well (being proportional to the number of cells present) is determined using a plate reader.
After averaging the results in rows A-D and E-H, the blank value (row 12) is subtracted, and results expressed as percentage of the untreated value (row 11). […] The GI50 generated by this procedure is the concentration of the drug that produces a percentage control A540 midway between the saturation, and zero-effect plateaus.

Test [3] addresses B-RAF (Homo sapiens, UniProt P15056, V600E). Kind of test: DELFIA Kinase Assay. Particulars: 100 μM ATP. Type of test: biochemical. On the procedure: Biological Methods—DELFIA Kinase Assay
Compounds were assessed by a kinase assay performed according to the following protocol.
DELFIA Kinase Buffer (DKB):
DKB1 (DKB with B-RAF and MEK Protein):
Combine 4950 μL of DKB and 50 μL of 2.5 mg/ml GST-MEK stock (to give […] of MEK per 40 μL). Then add 22.5 μL of B-RAF to give ˜0.2 μL of B-RAF per 40 μL.
DKB2 (DKB with MEK Protein):
Combine 4950 μL of DKB and 50 μL of 2.5 mg/ml GST-MEK stock (to give 1 mg of MEK per 40 μL). Use 500 μL of this for the blow out (BO) and the empty vector (EV) control.
100 mM stock, dilute to 500 μM to give 100 μM final concentration in assay.
Inhibitors (Test Compounds):
Phospho-MEK½ CST #9121S diluted 1:1000 in DELFIA assay buffer (AB). Preincubate antibody in the AB for 30 minutes at room temperature prior to use.
Anti-rabbit-Eur labelled secondary Perkin Elmer #AD0105 diluted 1:1000 in DELFIA assay buffer (AB). Preincubate antibody in the AB for 30 minutes at room temperature prior to use. (Primary and secondary antibodies were incubated together.)
1. Preblock wells with 5% milk in TBS for 1 hour.
2. Wash wells with 3× with 200 μL TBS.
3. Plate out 40 μL of DKB1 for all inhibitors (test compounds), DMSO control, and optionally other control compounds.
4. Plate out 40 μL of DKB2 for BO and EV wells.
5. Add inhibitors (test compounds) at 0.5 μL per well according to desired plate layout.
6. Add 0.5 μL DMSO to vehicle control wells.
7. Add 2 μL of B-RAF to BO and EV wells.
8. Pre-incubate with inhibitors (test compounds) for 10 minutes at room temperature with shaking.
9. Add 10 μL of 500 μM ATP stock, in DKB, to give 100 μM assay concentration.
10. Seal plates with TopSeal and incubate at room temperature with shaking for 45 minutes.
11. Wash plates 3× with 200 μL 0.1% Tween20/Water to terminate reaction.
12. Add 50 μL per well of antibody mix and incubate for 1 hour at room temperature with shaking.
13. Wash plates 3× with 200 μL 0.1% Tween20/Water.
14. Add 100 μL DELFIA enhancement solution per well, cover in foil, and incubate at room temperature for 30 minutes with shaking.
15. Read on Victor using Europium protocol.
as §1, with “(Empty Vector)” for “(no cells)”

Values joined by “and” are separate entries in the source; they are usually repeats but may differ in a detail not shown here. Equal entries are not always repeated.

Chain of B-RAF (P15056 whole entry V600E): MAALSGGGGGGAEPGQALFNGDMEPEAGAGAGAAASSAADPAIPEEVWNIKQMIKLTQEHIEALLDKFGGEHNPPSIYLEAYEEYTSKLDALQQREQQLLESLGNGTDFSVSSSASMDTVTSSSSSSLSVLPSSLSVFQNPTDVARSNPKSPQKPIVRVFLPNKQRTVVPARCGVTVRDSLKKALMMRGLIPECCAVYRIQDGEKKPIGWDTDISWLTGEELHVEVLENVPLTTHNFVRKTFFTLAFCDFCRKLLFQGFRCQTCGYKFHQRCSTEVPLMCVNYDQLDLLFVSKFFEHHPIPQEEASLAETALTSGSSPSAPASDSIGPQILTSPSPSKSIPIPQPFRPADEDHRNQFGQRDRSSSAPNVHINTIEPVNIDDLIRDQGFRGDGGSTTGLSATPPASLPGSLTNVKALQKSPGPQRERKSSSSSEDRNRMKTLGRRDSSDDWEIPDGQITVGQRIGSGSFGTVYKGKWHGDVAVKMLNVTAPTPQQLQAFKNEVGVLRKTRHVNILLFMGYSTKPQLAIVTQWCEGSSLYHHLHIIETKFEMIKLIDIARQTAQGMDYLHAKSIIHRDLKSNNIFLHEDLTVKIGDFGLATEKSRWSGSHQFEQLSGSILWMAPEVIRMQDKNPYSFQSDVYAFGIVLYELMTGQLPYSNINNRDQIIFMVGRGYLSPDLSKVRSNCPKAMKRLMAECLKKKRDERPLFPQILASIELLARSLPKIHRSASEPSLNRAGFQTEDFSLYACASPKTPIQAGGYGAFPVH

`Cc1ccc(-n2nc(C(C)(C)C)cc2NC(=O)Nc2ccc(Oc3ccnc4[nH]c(=O)c(C)nc34)c3cccnc23)cc1` [BB-002, 5-[(8-Amino-quinolinyl-5-oxy)carbonylamino-5-(1-N-p-tolyl-3-t-butyl-imidazolyl)]-pyridin-[2,3]-3-methylpyrazin-2-one]: the IC50 in test [1] is ≤ 10 µM. In addition, the GI50 in test [2] is ≤ 10 µM.
`Cn1c(=O)[nH]c2nccc(Oc3ccc(NC(=O)Nc4cc(C(C)(C)C)nn4-c4ccccc4)c4ncccc34)c21` [AA-012, 4-[(5-Oxy-quinolinyl-8-amino)carbonyl-amino-(1-N-phenyl-3-t-butyl-pyrazol-5-yl)]-pyridin-5-N-methyl,6-imidazolone]: the IC50 in test [3] is ≤ 1000 nM and 1000 nM.
As to `O=C(Nc1ccc(Cl)c(C(F)(F)F)c1)Nc1ccc(Oc2ccnc3[nH]c(=O)[nH]c23)c2ncccc12` [AA-002, 4-[(8-Oxy-quinolinyl-5-amino)carbonylamino-(3-trifluoromethyl-4-chloro-phenyl)]-pyridin-5,6-imidazolone], the IC50 in test [3] is ≤ 1000 nM.
Take `O=C(Nc1cc(C(F)(F)F)ccc1F)Nc1ccc(Oc2ccnc3[nH]c(=O)cnc23)c2cccnc12` [BB-005, 5-[(8-Amino-quinolinyl-5-oxy)carbonylamino-5-(2-fluoro-5-trifluoromethyl-phenyl)]-pyridin-[2,3]pyrazin-2-one]: the IC50 in test [1] is ≤ 10 µM; in test [3] it was ≤ 1000 nM. In addition, the GI50 in test [2] is ≤ 10 µM.
In the case of `O=C(Nc1ccc(Cl)c(C(F)(F)F)c1)Nc1ccc(Oc2ccnc3[nH]c(=O)[nH]c23)c2cccnc12` [AA-007, 4-[(5-Oxy-quinolinyl-8-amino)carbonylamino-(3-trifluoromethyl-4-chloro-phenyl)]-pyridin-5,6-imidazolone], the figures for the IC50 in test [1] and in test [3] were ≤ 10 µM and ≤ 1000 nM, respectively. The GI50 in test [2] was ≤ 10 µM.
With `Cc1nc2c(Oc3ccc(NC(=O)Nc4cc(C(C)(C)C)nn4C)c4ncccc34)ccnc2[nH]c1=O` [BB-006, 5-[(8-Amino-quinolinyl-5-oxy)carbonylamino-5-(1-methyl-3-t-butyl-imidazolyl)]-pyridin-[2,3]-3-methylpyrazin-2-one], the IC50 in test [1] was ≤ 10 µM; in test [3], ≤ 1000 nM. In test [2], the GI50 is ≤ 10 µM.
Consider `Cn1c(=O)[nH]c2c(Oc3ccc(NC(=O)Nc4cc(C(F)(F)F)ccc4F)c4ncccc34)ccnc21` [AA-013, 5-[(8-Amino-quinolinyl-5-oxy)carbonylamino-3-(2-fluoro-5-trifluoromethyl-phenyl)]-Pyridin-[2,3]-N-methylimidazol-2-one], for which the results for the IC50 in test [1] and in test [3] were ≤ 10 µM and ≤ 1000 nM, respectively.
Take `Cc1ccc(-n2nc(C(C)(C)C)cc2NC(=O)Nc2ccc(Oc3ccnc4[nH]c(=O)n(C)c34)c3cccnc23)cc1` [AA-011, 4-[(5-Oxy-quinolinyl-8-amino)carbonyl-amino-(1-N-p-tolyl-3-t-butyl-pyrazol-5-yl)]-pyridin-5-N-methyl,6-imidazolone]: the IC50 in test [1] was ≤ 10 µM. Further, the GI50 in test [2] is ≤ 10 µM.
In the case of `Cc1ccc(-n2nc(C(C)(C)C)cc2NC(=O)Nc2ccc(Oc3ccnc4c3[nH]c(=O)n4C)c3cccnc23)cc1` [AA-015], the IC50 in test [1] is ≤ 10 µM. The GI50 in test [2] is ≤ 10 µM.
Take `Cn1c(=O)[nH]c2c(Oc3ccc(NC(=O)Nc4cc(C(C)(C)C)nn4-c4ccccc4)c4ncccc34)ccnc21` [AA-016]: in test [1], the IC50 is ≤ 10 µM. Further, in test [2], the GI50 was ≤ 10 µM.
As to `CC(C)(C)c1cc(NC(=O)Nc2ccc(Oc3ccnc4[nH]c(=O)[nH]c34)c3ncccc23)n(-c2ccccc2)n1` [AA-006, 4-[(8-Oxy-quinolinyl-5-amino)carbonyl-amino-(1-N-phenyl-3-t-butyl-pyrazol-5-yl)]-pyridin-5,6-imidazolone], the IC50 in test [1] is ≤ 10 µM. The GI50 in test [2] was ≤ 10 µM.
Consider `O=C(Nc1cc(C(F)(F)F)ccc1F)Nc1ccc(Oc2ccnc3[nH]c(=O)[nH]c23)c2ncccc12` [AA-001, 4-[(5-Amino-quinolinyl-8-oxy)carbonylamino-(2-fluoro-5-trifloromethylphenyl)]-pyridin-5,6-imidazolone], for which the GI50 in test [2] is ≤ 10 µM. In test [3], the IC50 was ≤ 1000 nM.
For `CC(C)(C)c1cc(NC(=O)Nc2ccc(Oc3ccnc4ncc(=O)[nH]c34)c3cccnc23)n(-c2ccccc2)n1` [BB-010], the IC50 in test [1] is ≤ 10 µM. Besides, the GI50 in test [2] is ≤ 10 µM.

Broadly, the IC50 is the concentration at which inhibition is half-maximal. A lower IC50 goes with higher potency. By GI50 is commonly meant the concentration at which growth is held to half of that of the control. Read a low GI50 as more potent growth inhibition.
